Assay results as given in ChEMBL document CHEMBL3882389, “Phosphatidylinositol 3-Kinase Inhibitors for the Treatment of Lymphoproliferative Malignancies” (2014).
The source made the active and inactive calls. No cut-off for these calls is given here.

Key:
[1] = test system: Homo sapiens; test: In vivo inhibition of PI3K in tumor tissue of po dosed solid tumor patient administered once daily; format: functional, organism-based
[2] = test system: Homo sapiens; test: In vivo inhibition of PI3K in hair follicle of po dosed solid tumor patient administered once daily; format: functional, organism-based
[3] = Toxicity in patient with chronic lymphocytic leukemia and lymphoma assessed as incidence of hyperglycemia at 600 mg, po qd for 21 days co-administered with paclitaxel and carboplatin during phase 1 open label non-randomized trial relative to control; format: organism-based; conditions: human, in vivo, 504 h
[4] = Toxicity in po dosed patient with chronic lymphocytic leukemia and lymphoma assessed as induction of grade 3 rash at 600 mg, po administered once daily for continuous 21 days; format: organism-based; conditions: human, in vivo, 504 h
[5] = Toxicity in patient with chronic lymphocytic leukemia and lymphoma assessed as incidence of cough at 600 mg, po qd for 21 days during phase 1 open label non-randomized trial relative to control; format: organism-based; conditions: human, in vivo, 504 h
[6] = Toxicity in patient with chronic lymphocytic leukemia and lymphoma assessed as incidence of diarrhea at 600 mg, po qd for 21 days during phase 1 open label non-randomized trial relative to control; format: organism-based; conditions: human, in vivo, 504 h
[7] = test system: Homo sapiens; test: In vivo inhibition of PI3K in skin of po dosed solid tumor patient administered once daily; format: functional, organism-based
[8] = Toxicity in patient with chronic lymphocytic leukemia and lymphoma assessed as incidence of grade more than equal 3 pruritus at 600 mg, po qd for 21 days co-administered with paclitaxel and carboplatin during phase 1 open label non-randomized trial relative to control; format: organism-based; conditions: human, in vivo, 504 h
[9] = Toxicity in patient with chronic lymphocytic leukemia and lymphoma assessed as incidence of fatigue at 600 mg, po qd for 21 days co-administered with paclitaxel and carboplatin during phase 1 open label non-randomized trial relative to control; format: organism-based; conditions: human, in vivo, 504 h
[10] = Toxicity in patient with chronic lymphocytic leukemia and lymphoma assessed as incidence of rash at 600 mg, po qd for 21 days during phase 1 open label non-randomized trial relative to control; format: organism-based; conditions: human, in vivo, 504 h
[11] = Toxicity in patient with chronic lymphocytic leukemia and lymphoma assessed as incidence of anemia at 600 mg, po qd for 21 days during phase 1 open label non-randomized trial relative to control; format: organism-based; conditions: human, in vivo, 504 h
[12] = test system: Homo sapiens; test: In vivo inhibition of PI3K in PBMC of po dosed solid tumor patient administered once daily; format: functional, organism-based
[13] = Toxicity in patient with chronic lymphocytic leukemia and lymphoma assessed as incidence of grade more than equal 3 fatigue at 600 mg, po qd for 21 days co-administered with paclitaxel and carboplatin during phase 1 open label non-randomized trial relative to control; format: organism-based; conditions: human, in vivo, 504 h
[14] = Toxicity in po dosed patient with chronic lymphocytic leukemia and lymphoma assessed as induction of grade 3 hypersensitivity at 600 mg, po once daily for continuous 21 daysrest; format: organism-based; conditions: human, in vivo
[15] = Toxicity in patient with chronic lymphocytic leukemia and lymphoma assessed as incidence of grade more than equal 3 abdominal pain at 600 mg, po qd for 21 days co-administered with paclitaxel and carboplatin during phase 1 open label non-randomized trial relative to control; format: organism-based, Abdomen; conditions: human, in vivo, 504 h
[16] = Toxicity in patient with chronic lymphocytic leukemia and lymphoma assessed as incidence of diarrhea at 600 mg, po qd for 21 days co-administered with paclitaxel and carboplatin during phase 1 open label non-randomized trial relative to control; format: organism-based; conditions: human, in vivo, 504 h
[17] = Toxicity in patient with chronic lymphocytic leukemia and lymphoma assessed as incidence of cough at 600 mg, po qd for 21 days co-administered with paclitaxel and carboplatin during phase 1 open label non-randomized trial relative to control; format: organism-based; conditions: human, in vivo, 504 h
[18] = Toxicity in patient with chronic lymphocytic leukemia and lymphoma assessed as incidence of grade more than equal 3 cough at 600 mg, po qd for 21 days co-administered with paclitaxel and carboplatin during phase 1 open label non-randomized trial relative to control; format: organism-based; conditions: human, in vivo, 504 h
[19] = Toxicity in patient with chronic lymphocytic leukemia and lymphoma assessed as incidence of hyperglycemia at 600 mg, po qd for 21 days during phase 1 open label non-randomized trial relative to control; format: organism-based; conditions: human, in vivo, 504 h
[20] = Toxicity in patient with chronic lymphocytic leukemia and lymphoma assessed as incidence of abdominal pain at 600 mg, po qd for 21 days during phase 1 open label non-randomized trial relative to control; format: organism-based, Abdomen; conditions: human, in vivo, 504 h
[21] = Toxicity in patient with chronic lymphocytic leukemia and lymphoma assessed as incidence of grade more than equal 3 neutrophenia at 600 mg, po qd for 21 days co-administered with paclitaxel and carboplatin during phase 1 open label non-randomized trial relative to control; format: organism-based; conditions: human, in vivo, 504 h
[22] = Toxicity in po dosed patient with chronic lymphocytic leukemia and lymphoma assessed as induction of grade 3 rash at 600 mg, po administered once daily for 21 days followed by 7 days rest; format: organism-based; conditions: human, in vivo
[23] = Toxicity in patient with chronic lymphocytic leukemia and lymphoma assessed as incidence of grade more than equal 3 anemia at 600 mg, po qd for 21 days co-administered with paclitaxel and carboplatin during phase 1 open label non-randomized trial relative to control; format: organism-based; conditions: human, in vivo, 504 h
[24] = Toxicity in patient with chronic lymphocytic leukemia and lymphoma assessed as incidence of pruritus at 600 mg, po qd for 21 days during phase 1 open label non-randomized trial relative to control; format: organism-based; conditions: human, in vivo, 504 h
[25] = Toxicity in patient with chronic lymphocytic leukemia and lymphoma assessed as incidence of grade more than equal 3 dyspnea at 600 mg, po qd for 21 days co-administered with paclitaxel and carboplatin during phase 1 open label non-randomized trial relative to control; format: organism-based; conditions: human, in vivo, 504 h
[26] = Toxicity in patient with chronic lymphocytic leukemia and lymphoma assessed as incidence of rash at 600 mg, po qd for 21 days co-administered with paclitaxel and carboplatin during phase 1 open label non-randomized trial relative to control; format: organism-based; conditions: human, in vivo, 504 h
[27] = Toxicity in patient with chronic lymphocytic leukemia and lymphoma assessed as incidence of grade more than equal 3 pyrexia at 600 mg, po qd for 21 days co-administered with paclitaxel and carboplatin during phase 1 open label non-randomized trial relative to control; format: organism-based; conditions: human, in vivo, 504 h
[28] = Toxicity in patient with chronic lymphocytic leukemia and lymphoma assessed as incidence of dyspnea at 600 mg, po qd for 21 days during phase 1 open label non-randomized trial relative to control; format: organism-based; conditions: human, in vivo, 504 h
[29] = Toxicity in patient with chronic lymphocytic leukemia and lymphoma assessed as incidence of neutrophenia at 600 mg, po qd for 21 days co-administered with paclitaxel and carboplatin during phase 1 open label non-randomized trial relative to control; format: organism-based; conditions: human, in vivo, 504 h
[30] = Toxicity in patient with chronic lymphocytic leukemia and lymphoma assessed as incidence of dyspnea at 600 mg, po qd for 21 days co-administered with paclitaxel and carboplatin during phase 1 open label non-randomized trial relative to control; format: organism-based; conditions: human, in vivo, 504 h
[31] = Toxicity in patient with chronic lymphocytic leukemia and lymphoma assessed as incidence of grade more than equal 3 anemia at 600 mg, po qd for 21 days during phase 1 open label non-randomized trial relative to control; format: organism-based; conditions: human, in vivo, 504 h
[32] = Toxicity in po dosed patient with chronic lymphocytic leukemia and lymphoma assessed as induction of grade 3 hypersensitivity at 600 mg, po administered once daily for 21 days followed by 7 days rest; format: organism-based; conditions: human, in vivo
[33] = Toxicity in patient with chronic lymphocytic leukemia and lymphoma assessed as incidence of grade more than equal 3 fatigue at 600 mg, po qd for 21 days during phase 1 open label non-randomized trial relative to control; format: organism-based; conditions: human, in vivo, 504 h

COc1ccc(Cl)c(Nc2nc3ccccc3nc2NS(=O)(=O)c2cccc(NC(=O)C(C)(C)N)c2)c1 [PILARALISIB]
inhibition [1]: Active | inhibition [2]: Active | Activity [3]: 4% | Activity [4]: Toxic | Activity [5]: 6% | Activity [6]: 12% | inhibition [7]: Active | Activity [8]: 0% | Activity [9]: 0% | Activity [10]: 4% | Activity [11]: 4% | inhibition [12]: Active | Activity [13]: 0% | Activity [14]: Toxic | Activity [15]: 0% | Activity [16]: 7% | Activity [17]: 0% | Activity [18]: 0% | Activity [19]: 4% | Activity [20]: 4% | Activity [21]: 4% | Activity [22]: Toxic | Activity [23]: 0% | Activity [24]: 4% | Activity [25]: 0% | Activity [26]: 3% | Activity [27]: 0% | Activity [28]: 4% | Activity [29]: 4% | Activity [30]: 0% | Activity [31]: 3% | Activity [32]: Toxic | Activity [33]: 0%
